Values joined by “and” are separate entries in the source; they are usually repeats but may differ in a detail not shown here. Identical values can stand only once. Like-named read-outs stand apart in the source and are kept apart here.
Experiments:
[1] = tested on: MCF-7 human breast adenocarcinoma cells; test: MTT cytotoxicity assay, MCF-7 cells; type: cell-based; conditions: for IC50: MTT, read-out: IC50
Method: (§1) For cytotoxicity experiments, cancer cells were seeded at a density of 5,000 (MCF-7), 10,000 (HL-60) or 2,000 cells/well (HCT116 and A549) in 96-well plates (TPP) for 24 h/37°C prior to the addition of examined agents. The non-cancerous cells, 3T3 and H9c2 cells, were cultured for 24 h/37°C in 96-well plates at a density of 10,000 cells/well, the medium was then changed to serum- and pyruvate-free DMEM (Sigma-Aldrich) and incubated with the cells for another 24 h/37°C. The cytotoxic effects of Bp4eT and its metabolites were studied at different concentrations after a 72 h/37°C incubation. In order to aid the dissolution of the lipophilic ligands, 0.1% dimethyl sulfoxide (v/v) (DMSO; Sigma-Aldrich) was present in the culture medium of all groups. At this concentration, DMSO had no effect on cellular proliferation or viability.
(§2) The viability of cells were determined using an MTT assay (Sigma-Aldrich) according to previously established methods. The optical density of soluble MTT was measured at λ = 570 nm, subtracting the λ = 690 nm background using a Tecan Infinite 200M plate reader (Tecan Group, Männedorf, Switzerland). The viability or proliferation of experimental groups was expressed as a percentage of the untreated controls (100%).
(§3) SigmaStat for Windows 3.5 (Systat Software, San Jose, CA, USA) statistical software package was utilized to analyze results. The data are expressed as the mean ± SD of a given number of experiments. Statistical significance was determined using a one-way ANOVA with a Bonferroni post-hoc test or Student’s t-test. The results were considered to be statistically significant when p < 0.05. The IC50 values were calculated using CalcuSyn 2.0 software (Biosoft, Cambridge, UK). Cell cycle analysis was evaluated using MultiCycle AV Software (Phoenix Flow Systems, San Diego, CA, USA).

H9c2 cardiomyoblasts = test: MTT cytotoxicity assay, H9c2 cells; type: cell-based, rat; conditions: for IC50: MTT, read-out: IC50
Method: as §1, §2, §3

MCF-7 cells = test: Viability (viabilita) used to normalise caspase activity; type: cell-based, human; conditions: kontrola = 100;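 further: compound tested at 100 nM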
Source text: Supplement pone.0139929.s002.zip/caspases activity.xlsx, sheet "results_viability"

SMILES: CCNC(=O)NN=C(c1ccccc1)c1ccccn1 [E-Bp4eS, 2-benzoylpyridine 4-ethylsemicarbazone]
- Therapeutic index, IC50 non-cancerous cells / IC50 neoplastic cells ([1]; 3T3/MCF-7): >4.8
- Therapeutic index, IC50 non-cancerous cells / IC50 neoplastic cells ([1]; H9c2/MCF-7): 4.2
- IC50 ([1]; Homo sapiens, MCF7, 72 h, MCF-7, 72 h/37°C, mean ± SD, n ≥ 4): 208 ± 43.9 µM
- IC50 ([1]; Homo sapiens, MCF7, MCF-7, 5 000 b/j, průměr (mean)): 209 µM
- IC50 ([1]; Homo sapiens, MCF7, MCF-7, 5 000 b/j, single experiment (by date)): 194 µM
- IC50 ([1]; MCF-7, 5 000 b/j, single experiment (by date)): 169 µM and 199 µM and 271 µM
- MTT, value relative to 0 μM = 100 ([1]; MCF-7, 5 000 b/j, koncentrace 1 μM, průměr (mean)): 97.81
- MTT, value relative to 0 μM = 100 ([1]; MCF-7, 5 000 b/j, koncentrace 1 μM, single experiment (by date)): 92.729 and 97.0185 and 91.1778 and 97.3834 and 110.755
- MTT, value relative to 0 μM = 100 ([1]; MCF-7, 5 000 b/j, koncentrace 3 μM, průměr (mean)): 98.68
- MTT, value relative to 0 μM = 100 ([1]; MCF-7, 5 000 b/j, koncentrace 3 μM, single experiment (by date)): 98.4078 and 88.0788 and 100.293 and 107.936
- MTT, value relative to 0 μM = 100 ([1]; MCF-7, 5 000 b/j, koncentrace 10 μM, průměr (mean)): 97.39
- MTT, value relative to 0 μM = 100 ([1]; MCF-7, 5 000 b/j, koncentrace 10 μM, single experiment (by date)): 92.0003 and 97.1637 and 90.3424 and 98.5326 and 108.927
- MTT, value relative to 0 μM = 100 ([1]; MCF-7, 5 000 b/j, koncentrace 30 μM, průměr (mean)): 96.90
- MTT, value relative to 0 μM = 100 ([1]; MCF-7, 5 000 b/j, koncentrace 30 μM, single experiment (by date)): 97.756 and 80.695 and 97.8856 and 111.258
- MTT, value relative to 0 μM = 100 ([1]; MCF-7, 5 000 b/j, koncentrace 100 μM, průměr (mean)): 90.08
- MTT, value relative to 0 μM = 100 ([1]; MCF-7, 5 000 b/j, koncentrace 100 μM, single experiment (by date)): 88.6813 and 85.2546 and 75.1399 and 92.8747 and 108.447
- MTT, value relative to 0 μM = 100 ([1]; MCF-7, 5 000 b/j, koncentrace 300 μM, průměr (mean)): 23.35
- MTT, value relative to 0 μM = 100 ([1]; MCF-7, 5 000 b/j, koncentrace 300 μM, single experiment (by date)): 24.0916 and 23.1141 and 17.816 and 28.3884
- MTT, value relative to 0 μM = 100 ([1]; MCF-7, 5 000 b/j, koncentrace 1000 μM, průměr (mean)): 23.56
- MTT, value relative to 0 μM = 100 ([1]; MCF-7, 5 000 b/j, koncentrace 1000 μM, single experiment (by date)): 23.4887 and 24.7991 and 25.8548 and 20.0906
- IC50 (H9c2 cardiomyoblasts; H9c2, 72 h/37°C, mean ± SD, n ≥ 4): 884 ± 279 µM
- MTT, relative to control (0 = 100) (H9c2 cardiomyoblasts; H9c2, 10 000 b/j, 1 μM, průměr (mean), sheet E-Bp4eS): 94.39
- MTT, relative to control (0 = 100) (H9c2 cardiomyoblasts; H9c2, 10 000 b/j, 1 μM, single experiment (date), sheet E-Bp4eS): 95.7668 and 93.0745 and 94.7872 and 93.9178
- MTT, relative to control (0 = 100) (H9c2 cardiomyoblasts; H9c2, 10 000 b/j, 3 μM, průměr (mean), sheet E-Bp4eS): 94.04
- MTT, relative to control (0 = 100) (H9c2 cardiomyoblasts; H9c2, 10 000 b/j, 3 μM, single experiment (date), sheet E-Bp4eS): 97.8721 and 90.4272 and 95.5074 and 92.3686
- MTT, relative to control (0 = 100) (H9c2 cardiomyoblasts; H9c2, 10 000 b/j, 10 μM, průměr (mean), sheet E-Bp4eS): 92.87
- MTT, relative to control (0 = 100) (H9c2 cardiomyoblasts; H9c2, 10 000 b/j, 10 μM, single experiment (date), sheet E-Bp4eS): 97.5948 and 91.5814 and 93.3122 and 89.0018
- MTT, relative to control (0 = 100) (H9c2 cardiomyoblasts; H9c2, 10 000 b/j, 30 μM, průměr (mean), sheet E-Bp4eS): 87.33
- MTT, relative to control (0 = 100) (H9c2 cardiomyoblasts; H9c2, 10 000 b/j, 30 μM, single experiment (date), sheet E-Bp4eS): 92.2111 and 86.1798 and 89.4636 and 81.4505
- MTT, relative to control (0 = 100) (H9c2 cardiomyoblasts; H9c2, 10 000 b/j, 100 μM, průměr (mean), sheet E-Bp4eS): 77.15
- MTT, relative to control (0 = 100) (H9c2 cardiomyoblasts; H9c2, 10 000 b/j, 100 μM, single experiment (date), sheet E-Bp4eS): 79.5863 and 76.8996 and 78.6318 and 73.5016
- MTT, relative to control (0 = 100) (H9c2 cardiomyoblasts; H9c2, 10 000 b/j, 300 μM, průměr (mean), sheet E-Bp4eS): 65.67
- MTT, relative to control (0 = 100) (H9c2 cardiomyoblasts; H9c2, 10 000 b/j, 300 μM, single experiment (date), sheet E-Bp4eS): 61.9338 and 65.3898 and 65.2717 and 70.085
- MTT, relative to control (0 = 100) (H9c2 cardiomyoblasts; H9c2, 10 000 b/j, 1000 μM, průměr (mean), sheet E-Bp4eS): 48.11
- MTT, relative to control (0 = 100) (H9c2 cardiomyoblasts; H9c2, 10 000 b/j, 1000 μM, single experiment (date), sheet E-Bp4eS): 55.0254 and 43.1142 and 38.2886 and 56.005
- IC50 (H9c2 cardiomyoblasts; H9c2, 10 000 b/j, single experiment (date), sheet E-Bp4eS): 683 µM and 1140 µM and 606 µM
- IC50 (H9c2 cardiomyoblasts; Rattus norvegicus, H9c2, H9c2, 10 000 b/j, průměr (mean), sheet E-Bp4eS): 884 µM
- IC50 (H9c2 cardiomyoblasts; Rattus norvegicus, H9c2, H9c2, 10 000 b/j, single experiment (date), sheet E-Bp4eS): 1100 µM
- viabilita (MCF-7 cells; 3 hodiny): 98.187
- viabilita (MCF-7 cells; 24 hodin): 99.4673
- viabilita (MCF-7 cells; 72 hodin): 97.81

— article PMC4604124, “In Vitro Characterization of the Pharmacological Properties of the Anti-Cancer Chelator, Bp4eT, and Its Phase I Metabolites” (PLoS ONE, 2015)
